Results reported in patent US7491827B2, “Aryl sulfonamides useful as inhibitors of chemokine receptor activity” (Millennium Pharmaceuticals, Inc., priority 2003, dated 2009).
Read-outs that look alike come from different tables or passages of the source.

Molecular target: T1, cloned human CCR8 receptor stably expressed in L1.2 cells (Homo sapiens, UniProt P51685)
T1 construct: expressed in transfected cells
Assay: whole cell binding screen: inhibition of biotinylated human I309 binding to CCR8 (FMAT 8100 HTS)
Settings: biotinylated human I-309, 10 point concentration response starting at 10 μM
Outline: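 L1.2 murine pre-B cells stably expressing human CCR8 (4.0×10^5 cells/mL) in HBSS/HEPES/fatty-acid-free BSA/azide buffer were mixed with biotinylated human I309 and compounds for 0.5 h, read by FMAT fluorescence. 10-point curves from 10 μM final; percent inhibition normalized to no-inhibitor and 100 nM unlabeled I309 controls.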

[1] = L1.2/hCCR8 cells, read-out: Ki of compounds to inhibit I-309 binding to CCR8
[2] = Ki of compounds to inhibit I-309 binding to CCR8, L1.2/hCCR8 cells

T1 sequence (P51685 whole entry): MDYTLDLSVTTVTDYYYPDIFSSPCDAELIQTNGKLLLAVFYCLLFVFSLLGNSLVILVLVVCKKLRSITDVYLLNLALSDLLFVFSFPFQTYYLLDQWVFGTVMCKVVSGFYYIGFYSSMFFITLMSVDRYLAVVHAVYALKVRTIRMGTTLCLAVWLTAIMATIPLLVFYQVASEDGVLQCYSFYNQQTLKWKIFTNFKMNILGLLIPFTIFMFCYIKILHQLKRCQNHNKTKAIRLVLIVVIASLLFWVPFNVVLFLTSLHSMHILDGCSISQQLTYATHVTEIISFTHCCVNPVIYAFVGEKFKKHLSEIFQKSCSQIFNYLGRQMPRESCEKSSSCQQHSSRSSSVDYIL

Ki [1] [nM]	Ki [2] [nM]	Structure (SMILES)
< 500	–	CC(C)(C)OC(=O)N1CCC(NS(=O)(=O)c2ccc(NC(=O)c3ccccc3)c3ccccc23)C1 (stereo not shown) [Compound A-37, 3-(4-Benzoylamino-naphthalene-1-sulfonylamino)-pyrrolidine-1-carboxylic acid tert-butyl ester]
< 500	–	CCOC(=O)N1CCC(NS(=O)(=O)c2ccc(NC(=O)c3ccccc3Cl)c3ccccc23)CC1 [Compound A-43, 4-[4-(2-Chloro-benzoylamino)-naphthalene-1-sulfonylamino]-piperidine-1-carboxylic acid ethyl ester]
< 30000	–	Cc1ccccc1C(=O)Nc1ccc(S(=O)(=O)N[C@@H]2[C@H](C)CN(Cc3ccccc3)C[C@@H]2C)c2ccccc12 [Compound A-46, (±)-(cis, cis)-N-[4-(1-Benzyl-3,5-dimethyl-piperidin-4-ylsulfamoyl)-naphthalen-1-yl]-2-methyl-benzamide]
< 500	–	COc1ccc(NS(=O)(=O)c2ccc(NC(=O)c3ccc(OC)cc3)c3ccccc23)cc1 [Compound B-2, 4-Methoxy-N-[4-(4-methoxy-phenylsulfamoyl)-naphthalen-1-yl]-benzamide]
< 30000	–	COc1ccc(NS(=O)(=O)c2ccc(NC(=O)c3ccc([N+](=O)[O-])cc3)c3ccccc23)cc1 [Compound B-3, N-[4-(4-Methoxy-phenylsulfamoyl)-naphthalen-1-yl]-4-nitro-benzamide]
< 500	–	COc1ccc(NS(=O)(=O)c2ccc(NC(=O)C3CCCCC3)c3ccccc23)cc1 [Compound B-4, Cyclohexanecarboxylic acid [4-(4-methoxy-phenylsulfamoyl)-naphthalen-1-yl]-amide]
< 1000	–	COc1ccc(NS(=O)(=O)c2ccc(NC(=O)c3cccc(OC)c3)c3ccccc23)cc1 [Compound B-5, 3-Methoxy-N-[4-(4-methoxy-phenylsulfamoyl)-naphthalen-1-yl]-benzamide]
< 30000	–	COc1ccc(NS(=O)(=O)c2ccc(NC(=O)c3ccccc3OC)c3ccccc23)cc1 [Compound B-6, 2-Methoxy-N-[4-(4-methoxy-phenylsulfamoyl)-naphthalen-1-yl]-benzamide]
< 500	–	COc1ccc(NS(=O)(=O)c2ccc(NC(=O)Cc3ccccc3)c3ccccc23)cc1 [Compound B-7, N-[4-(4-Methoxy-phenylsulfamoyl)-naphthalen-1-yl]-2-phenyl-acetamide]
< 1000	–	COc1ccc(NS(=O)(=O)c2ccc(NC(=O)c3ccncc3)c3ccccc23)cc1 [Compound B-8, N-[4-(4-Methoxy-phenylsulfamoyl)-naphthalen-1-yl]-isonicotinamide]
< 30000	–	COc1ccc(NS(=O)(=O)c2ccc(NC(=S)Nc3ccccc3)c3ccccc23)cc1 [Compound B-9, 4-(3-Phenyl-thioureido)-naphthalene-1-sulfonic acid (4-methoxy-phenyl)-amide]
< 30000	–	COc1ccc(NS(=O)(=O)c2ccc(NC(=O)Nc3ccccc3)c3ccccc23)cc1 [Compound B-10, 4-(3-Phenyl-ureido)-naphthalene-1-sulfonic acid (4-methoxy-phenyl)-amide]
< 500	–	COc1ccc(NS(=O)(=O)c2ccc(NC(=O)c3ccccc3C)c3ccccc23)cc1 [Compound B-11, N-[4-(4-Methoxy-phenylsulfamoyl)-naphthalen-1-yl]-2-methyl-benzamide]
< 500	–	CCOC(=O)N1CCC(NS(=O)(=O)c2ccc(NC(=O)C3CCCCC3)c3ccccc23)CC1 [Compound B-12, 4-[4-(Cyclohexanecarbonyl-amino)-naphthalene-1-sulfonylamino]-piperidine-1-carboxylic acid ethyl ester]
< 1000	–	CCOC(=O)N1CCC(NS(=O)(=O)c2ccc(NC(=O)c3cccc(C)c3)c3ccccc23)CC1 [Compound B-13, 4-[4-(3-Methyl-benzoylamino)-naphthalene-1-sulfonylamino]-piperidine-1-carboxylic acid ethyl ester]
–	< 500	CCOC(=O)N1CCC(NS(=O)(=O)c2ccc(NC(=O)N3CCCCC3)c3ccccc23)CC1 [Compound B-14, 4-{4-[(Piperidine-1-carbonyl)-amino]-naphthalene-1-sulfonylamino}-piperidine-1-carboxylic acid ethyl ester]
< 500	–	CC(C)(C)OC(=O)N1CCC(NS(=O)(=O)c2ccc(NC(=O)c3ccccc3F)c3ccccc23)CC1 [Compound B-15, 4-[4-(2-Fluoro-benzoylamino)-naphthalene-1-sulfonylamino]-piperidine-1-carboxylic acid tert-butyl ester]
< 1000	–	CC(C)(C)OC(=O)N1CCC(NS(=O)(=O)c2ccc(NC(=O)C3CCCC3)c3ccccc23)CC1 [Compound B-16, 4-[4-(Cyclopentanecarbonyl-amino)-naphthalene-1-sulfonylamino]-piperidine-1-carboxylic acid tert-butyl ester]

Ki [1] [nM]	Ki [2] [nM]	Structure (SMILES)
< 30000	–	CC(C)(C)OC(=O)N1CCC(NS(=O)(=O)c2ccc(NC(=O)C3CC3)c3ccccc23)CC1 [Compound B-17, 4-[4-(Cyclopropanecarbonyl-amino)-naphthalene-1-sulfonylamino]-piperidine-1-carboxylic acid tert-butyl ester]
< 30000	–	CC(C)(C)OC(=O)N1CCC(NS(=O)(=O)c2ccc(NC(=O)C3CCC3)c3ccccc23)CC1 [Compound B-18, 4-[4-(Cyclobutanecarbonyl-amino)-naphthalene-1-sulfonylamino]-piperidine-1-carboxylic acid tert-butyl ester]
< 500	–	CC(C)(C)OC(=O)N1CCC(NS(=O)(=O)c2ccc(NC(=O)C3CCCCC3)c3ccccc23)CC1 [Compound B-19, 4-[4-(Cyclohexanecarbonyl-amno)-naphthalene-1-sulfonylamino]-piperidine-1-carboxylic acid tert-butyl ester]
< 1000	–	CC(C)(C)OC(=O)N1CCC(NS(=O)(=O)c2ccc(NC(=O)c3cccnc3)c3ccccc23)CC1 [Compound B-20, 4-{4-[(Pyridine-3-carbonyl)-amino]-naphthalene-1-sulfonylamino}-piperidine-1-carboxylic acid tert-butyl ester]
< 30000	–	CN1CCC(C(=O)Nc2ccc(S(=O)(=O)NC3CCN(C(=O)OC(C)(C)C)CC3)c3ccccc23)CC1 [Compound B-21, 4-{4-[(1-Methyl-piperidine-4-carbonyl)-amino]-naphthalene-1-sulfonylamino}-piperidine-1-carboxylic acid tert-butyl ester]
< 30000	–	CC(C)(C)OC(=O)N1CCC(NS(=O)(=O)c2ccc(NC(=O)c3ccncc3)c3ccccc23)CC1 [Compound B-22, 4-{4-[(Pyridine-4-carbonyl)-amino]-naphthalene-1-sulfonylamino}-piperidine-1-carboxylic acid tert-butyl ester]
< 30000	–	CN1CCCC(C(=O)Nc2ccc(S(=O)(=O)NC3CCN(C(=O)OC(C)(C)C)CC3)c3ccccc23)C1 (stereo not shown) [Compound B-23]
< 500	–	CCOC(=O)N1CCC(NS(=O)(=O)c2ccc(NC(=O)c3cccnc3C)c3ccccc23)CC1 [Compound B-24]
< 500	–	CCOC(=O)N1CCC(NS(=O)(=O)c2ccc(NC(=O)c3ccccc3C#N)c3ccccc23)CC1 [Compound B-26, 4-[4-(2-Cyano-benzoylamino)-naphthalene-1-sulfonylamino]-piperidine-1-carboxylic acid ethyl ester]
< 500	–	CCOC(=O)N1CCC(NS(=O)(=O)c2ccc(NC(=O)c3cccc(C)c3C)c3ccccc23)CC1 [Compound B-27]
< 500	–	CCOC(=O)N1CCC(NS(=O)(=O)c2ccc(NC(=O)c3cc(C)ccc3C)c3ccccc23)CC1 [Compound B-28, 4-[4-(2,5-Dimethyl-benzoylamino)-naphthalene-1-sulfonylamino]-piperidine-1-carboxylic acid ethyl ester]
–	< 30000	COc1ccc(NS(=O)(=O)c2ccc(N(C)C(=O)c3ccccc3)c3ccccc23)cc1 [Compound B-33, N-[4-(4-Methoxy-phenylsulfamoyl)-naphthalen-1-yl]-N-methyl-benzamide]
–	< 1000	O=C(Nc1ccc(S(=O)(=O)NC2CCNCC2)c2ccccc12)c1ccccc1 [Compound C-1, N-[4-(Piperidin-4-ylsulfamoyl)-naphthalen-1-yl]-benzamide]
< 500	–	CC(C)NC(=O)N1CCC(NS(=O)(=O)c2ccc(NC(=O)c3ccccc3)c3ccccc23)CC1 [Compound C-2, 4-(4-Benzoylamino-naphthalene-1-sulfonylamino)-piperidine-1-carboxylic acid isopropyl amide]
< 500	–	O=C(Nc1ccc(S(=O)(=O)NC2CCN(C(=O)N3CCOCC3)CC2)c2ccccc12)c1ccccc1 [Compound C-4, N-{4-[1-(Morpholine-4-carbonyl)-piperidin-4-ylsulfamoyl]-naphthalen-1-yl}-benzamide]
< 500	–	O=C(Nc1ccc(S(=O)(=O)NC2CCN(C(=O)C3CCCC3)CC2)c2ccccc12)c1ccccc1 [Compound C-5, N-[4-(1-Cyclopentanecarbonyl-piperidin-4-ylsulfamoyl)-naphthalen-1-yl]-benzamide]
< 500	–	CCNC(=O)N1CCC(NS(=O)(=O)c2ccc(NC(=O)c3ccccc3)c3ccccc23)CC1 [Compound C-7, 4-(4-Benzoylamino-naphthalene-1-sulfonylamino)-piperidine-1-carboxylic acid ethylamide]
< 500	–	CCOC(=O)N1[C@@H]2CC[C@H]1C[C@@H](NS(=O)(=O)c1ccc(NC(=O)c3ccccc3C)c3ccccc13)C2 [Compound C-10, cis-3-[4-(2-Methyl-benzoylamino)-naphthalene-1-sulfonylamino]-8-aza-bicyclo[3.2.1]octane-8-carboxylic acid ethyl ester]

Structure (SMILES)	Ki [1] [nM]	Ki [2] [nM]
CCOC(=O)N1CCC(NS(=O)(=O)c2ccc(NC(=O)c3ccccc3C)c3ccccc23)CC1 [Compound A-40, 4-[4-(2-Methyl-benzoylamino)-naphthalene-1-sulfonylamino]-piperidine-1-carboxylic acid ethyl ester]	–	< 500
